Entries after “also recorded” stand apart in the source; their conditions may differ.
Tests used:
LNCaP-HP cells [1] = assay: Immunoblotting of SREBP and LDLr in LNCaP-HP cells; format: cell-based, human
Excerpt: (§1) Finally, it was investigated whether Avasimibe-mediated suppression of tumor growth is associated with the regulation of cholesterol metabolism machinery. It was hypothesized that abrogating ACAT activity would up-regulate cellular level of free cholesterol and then down-regulate SREBP and LDLr in PCa cells (FIG. 40). […] To provide an explanation for enhanced uptake of LDL and then storage of excess cholesterol in the form of cholesteryl ester in aggressive prostate cancer, it was noticed that LDL is the primary carrier of essential polyunsaturated fatty acid including arachidonic acid (AA). Inside cells, AA is converted to a wide range of eicosanoids, which have been implicated in various pathological processes such as inflammation and cancer.

PC-3 cells [2] = assay: Immunoblotting of SREBP and LDLr in PC-3 cells; format: cell-based, human
Excerpt: It has been shown that mTOR plays a key role in regulating the function of sterol regulatory element-binding proteins (SREBPs) which control lipid and cholesterol homeostasis. Specifically, when cellular sterol levels decrease, SREBP-1a and/or -2 precursors are cleaved to activate the expression of genes involved in de novo cholesterol synthesis and LDL-cholesterol uptake. […] Similar results for on LNCaP-HP cells were obtained.
as §1

LNCaP-HP cells [3] = assay: Cell growth / viable cell number of LNCaP-HP cells; format: cell-based, human; details: for proliferation (growth) rate, MTT assay: treatment started at day 1 (FIG. 14)
Procedure: To study the impact of cholesteryl ester storage on tumor growth, the growth rate of LNCaP-HP and LNCaP-LP cells were measured using MTT assay (a colorimetric assay for measuring number of cells present, where the color is proportional to the number of cells).
(§2) Because cholesteryl ester accumulation was found in PCa but not in normal prostate, how cell viability could be affected by regulating cholesteryl ester levels with the ACAT inhibitor Avasimibe was evaluated. […] The inhibitory effect of Avasimibe on the growth of PC-3 and LNCaP-HP cells was considerably greater than that in cholesteryl ester poor cancer cells including LNCaP-LP, DU145, and C4-2.

PC-3 xenografts = assay: Mice bearing PC-3 xenografts treated with Avasimibe; format: in vivo
Procedure: To test the potential of using Avasimibe to treat advanced PCa in vivo, Avasimibe (15 mg/kg body weight by i.p. injection) was administered to the mice bearing PC-3 xenografts. Daily treatment of mice with the Avasimibe inhibited the growth of PC-3 tumors by ˜2 folds (FIG. 33), and induced ˜40% reduction in tumor weight by the end of 30-day treatment (FIG. 34).

BxPC3 cells [4] = assay: CRS microscopy of lipid droplets in BxPC3 cells; format: cell-based; details: 7.5 μM for 24 h (FIG. 48)
Excerpt: (§3) Coherent Raman scattering (CRS) microscopy is a label-free imaging technique that is highly sensitive to C—H bond abundant structures such as membranes and lipid droplets. By matching the C—H bond stretching vibration mode at 2850 cm^−1, lipid distribution was imaged in human pancreatic cancer (n=10) and normal tissues (n=10) provided by IU School of Medicine. A remarkable amount of lipid droplets in all pancreatic cancer tissues was observed (FIG. 47, Panel B). […] Furthermore, by coupling a spectrometer to the CRS microscope, the devices was able to dissect the composition of individual lipid droplets through confocal Raman spectral analysis. […] Using emulsified mixtures of cholesteryl oleate and glyceryl trioleate (Sigma), it was verified that height ratio of the Raman peak at 702 cm^−1 the Raman peak at 1442 cm^−1 (CH^2 bending vibration mode) is linearly proportional to molar percentage of cholesteryl ester (FIG. 47, Panel D) out of the total neutral lipids. Based on this calibration curve, it was concluded that over 80% of neutral lipids in human pancreatic cancer tissues are cholesteryl ester. In order to understand how lipids accumulate in pancreatic cancer, several in vitro studies using two common pancreatic cancer cell lines, BxPC3 and PANC-1 were performed. […]

LNCaP-HP cells [5] = assay: Cellular uptake of DiI-labeled LDL in LNCaP-HP cells; format: cell-based, human; details: 2-day treatment
Excerpt: as §1

PC-3 cells [6] = assay: Standard biochemical assay of CE and free cholesterol in PC-3; format: cell-based, human; details: PC-3, 2-day treatment
Excerpt: (§4) It is well known that LDL enters a cell via LDL receptor (LDLr) and traffics to the late endosome and lysosome where it is hydrolyzed to free fatty acids and free cholesterol. The excess free cholesterol together with the fatty acyl CoA substrate is then converted to cholesteryl ester by Acyl coenzyme A: cholesterol acyltransferase (ACAT) and stored in lipid droplets. Thus, cells were separately treated with Avasimibe and Sandoz 58-035, two different ACAT inhibitors. […] The significant reduction of cholesteryl ester accumulation upon Avasimibe treatment was further confirmed by an independent biochemical assay of cell lysates.
as §1

PANC-1 cells [7] = assay: CRS microscopy and Raman spectroscopy of cholesteryl ester in PANC-1 cells; format: cell-based; details: 7.5 μM for 24 h (FIG. 48)
Excerpt: as §3

PC-3 cells [8] = assay: Spectroscopic imaging and Raman spectral analysis of lipid droplets in PC-3 cells; format: cell-based, human; details: for cholesteryl ester accumulation: ACAT inhibitor treatment
Excerpt: (§5) A broad spectrum of human prostate epithelial cells has been examined. […] Loss of the tumor suppressor PTEN has been widely observed in both localized and metastatic prostate cancer and correlated with high Gleason grade. With loss of PTEN, PI3K signaling is hyper-activated, which, in turn, leads to AKT activation. […] AKT mediates the phosphorylation and activation of mTOR complex 1 (mTORC1) which plays critical roles in the regulation of protein and lipid biosynthesis. To determine whether the PI3K/AKT/mTOR pathway regulates cholesteryl ester accumulation, both types of cholesteryl ester rich cell lines, PC-3 and high passage LNCaP (LNCaP-HP), were treated with LY294002 (PI3K inhibitor), MK2206 (AKT inhibitor), and Rapamycin (mTOR inhibitor), respectively.
(§6) Because cholesterol can be either de novo synthesized via the mevalonate pathway or taken up from exogenous lipoproteins, the source of cholesterol used for cholesteryl ester accumulation was investigated. PC-3 cell were first treated with Simvastatin, an inhibitor of 3-hydroxy-3-methylglutaryl coenzyme A HMG-CoA reductase, the rate-limiting enzyme of the mevalonate pathway. […] In contrast, after treating cells with lipoprotein-deficient serum (LPDS), lipid droplets nearly disappeared in cholesteryl ester rich PC-3 and LNCaP-HP cells (FIG. 29, Panel A), but remained the same amount in cholesteryl ester poor cells including LNCaP-LP, DU145, and C4-2. Re-addition of low-density lipoprotein (LDL) into the LPDS medium restored lipid droplets and cholesteryl ester in both PC-3 and LNCaP-HP cells (FIG. 29, Panel B).
as §4

[9] = test system: normal prostate RWPE1 cell; assay: Toxic effect on normal prostate RWPE1 cell; format: cell-based; details: at the same doses
PC-3 cells [10] = assay: Cell growth / viable cell number of PC-3 cells; format: cell-based, human
Procedure: as §2

BxPC3 cells [11] = assay: Cell viability (ATP level) of BxPC3 cells; format: cell-based; details: 7.5 μM for various periods
Procedure: (§7) The cells were treated with […] (control) or 7.5 μM avasimibe for various periods. Then cells were lysed and ATP level were quantified to determine the number of viable cells.
(§8) As the ACAT-1 inhibitor, avasimibe, effectively removed lipid droplet or cholesteryl ester accumulation in pancreatic cancer cells, the use of avasimibe as a chemotherapy agent for pancreatic cancer was explored. The effects of avasimibe on cell viability in BxPC3 and PANC-1 cells were examined.

PANC-1 cells [12] = assay: Cell viability (ATP level) of PANC-1 cells; format: cell-based; details: 7.5 μM for various periods
Procedure: as §7, §8

PC-3 cells [13] = assay: LC-MS of arachidonic acid (AA) in PC-3 cell lysates; format: cell-based, human
Excerpt: as §1

[14] = test system: pancreatic cancer cells (BxPC3 and PANC-1); assay: Western blot of pancreatic cancer cells before and after avasimibe treatment; format: cell-based; details: pancreatic cancer cells (FIG. 49)
Procedure: In order to understand how lipids accumulate in pancreatic cancer, several in vitro studies using two common pancreatic cancer cell lines, BxPC3 and PANC-1 were performed. Since ACAT is the enzyme responsible for the conversion from cholesterol to cholesteryl ester the effects of inhibiting ACAT-1, the universally expressed isoform, on lipid metabolism in pancreatic cancer cells were first examined. […] To explore the molecular mechanism, western blot of the cells before and after avasimibe treatment were performed.

PC-3 cells [15] = assay: Flow cytometry analysis of cell cycle and apoptosis in PC-3 cells; format: cell-based, human
LNCaP-HP cells [16] = assay: Spectroscopic (SRL) imaging and Raman spectral analysis of lipid droplets in LNCaP-HP cells; format: cell-based, human; details: for cholesteryl ester accumulation: ACAT inhibitor treatment
Procedure: The LNCaP-HP cells were treated with an ACAT inhibitor, avasimibe (structure shown in FIG. 13, Panel D), at 10 μM for 2 days.
as §5, §4

PC-3 cells [17] = assay: Cellular uptake of DiI-labeled LDL in PC-3 cells; format: cell-based, human; details: PC-3, 2-day treatment
Excerpt: as §6
Finally, it was investigated whether Avasimibe-mediated suppression of tumor growth is associated with the regulation of cholesterol metabolism machinery. It was hypothesized that abrogating ACAT activity would up-regulate cellular level of free cholesterol and then down-regulate SREBP and LDLr in PCa cells (FIG. 40). […]

CC(C)c1cc(C(C)C)c(CC(=O)NS(=O)(=O)Oc2c(C(C)C)cccc2C(C)C)c(C(C)C)c1 [Avasimibe, avasimibe]
LDLr level (immunoblot) (LNCaP-HP cells [1]): down-regulation | SREBP-2 level (immunoblot) (LNCaP-HP cells [1]): down-regulation | LDLr level (immunoblot) (PC-3 cells [2]): down-regulation | SREBP-1 level (immunoblot) (PC-3 cells [2]): down-regulation | IC50 (LNCaP-HP cells [3]; Homo sapiens, 72 h, LNCaP-HP cell, 3 days): 9.64 µM | cytotoxicity at 7.5 µM (LNCaP-HP cells [3]; Homo sapiens, 72 h, LNCaP-HP cells, 3 days of 7.5 μM, read-out: reduction in viable cell number): ~55% | proliferation (viable cell number) (LNCaP-HP cells [3]; LNCaP-HP cells (FIG. 31)): significantly hampered the proliferation | proliferation (growth) rate, MTT assay (LNCaP-HP cells [3]; LNCaP-HP cells): significantly slowed down the proliferate rate | proliferation (growth) rate, MTT assay (LNCaP-HP cells [3]; LNCaP-HP cells, listed as avasimide): significantly reduced growth rate | increase of apoptosis (TUNEL IHC) (PC-3 xenografts; PC-3 tumor): ~2 folds | reduction of proliferation (Ki67 IHC) (PC-3 xenografts; PC-3 tumor): ~70% | cholesteryl ester content in PC-3 tumor (spectroscopic imaging of extracted tissues) (PC-3 xenografts; compared to vehicle-treated): significantly dropped | tumor size compared to controls (PC-3 xenografts; mice (FIG. 33)): decreased tumor size | body weight over the course of treatment (PC-3 xenografts; mice (FIG. 36)): remained steady | pathological review of heart, kidney, liver, lung, and spleen (PC-3 xenografts; mice receiving Avasimibe): no signs of toxicity | appearance of harvested tumors (PC-3 xenografts; mice, 15 mg/kg i.p. daily): less bloody in appearance | reduction in tumor weight (PC-3 xenografts; mice, 15 mg/kg i.p. daily, end of 30-day treatment): ~40% | inhibition of growth of PC-3 tumors (PC-3 xenografts; mice, 15 mg/kg i.p., daily treatment): ~2 folds | general toxicity (animal behavior, body weight) (PC-3 xenografts; mouse, in vivo, ip, 15 mg/kg): did not cause general toxicity | lipid droplet amount (BxPC3 cells [4]): reduced lipid droplet amount | lipid droplet amount (BxPC3 cells [4]; listed as avasimibe): reduced the lipid droplet amount; also recorded: significantly reduced the amount of lipid droplets | uptake of DiI-labeled LDL (LNCaP-HP cells [5]): drastically inhibited LDL uptake | level of CE (PC-3 cells [6]): reduced the level of CE | level of free cholesterol (PC-3 cells [6]): slightly increased the level of free cholesterol | cholesteryl ester accumulation (PANC-1 cells [7]): blocked cholesteryl ester accumulation | cholesteryl ester accumulation (PANC-1 cells [7]; listed as avasimibe): eliminated cholesteryl ester; also recorded: blocked cholesteryl ester accumulation | lipid droplet amount (PC-3 cells [8]): remaining unchanged | cholesteryl ester accumulation (PC-3 cells [8]): effectively suppressed cholesteryl ester accumulation | toxic effect on normal prostate cell [9]: no toxic effect | IC50 (PC-3 cells [10]; Homo sapiens, 72 h, PC-3 cell, 3 days): 7.32 µM | cytotoxicity at 7.5 µM (PC-3 cells [10]; Homo sapiens, 72 h, PC-3 cells, 3 days of 7.5 μM, read-out: reduction in viable cell number): ~48% | proliferation (viable cell number) (PC-3 cells [10]; PC-3 cells (FIG. 31)): significantly hampered the proliferation | cell viability (ATP level) (BxPC3 cells [11]): significantly reduced cell viability | cell viability (ATP level) (BxPC3 cells [11]; listed as avasimibe): significantly reduced the viability; also recorded: dramatically reduced the cell viability | cell viability (ATP level) (PANC-1 cells [12]): significantly reduced cell viability | cell viability (ATP level) (PANC-1 cells [12]; listed as avasimibe): significantly reduced the viability; also recorded: dramatically reduced the cell viability | level of AA (arachidonic acid) (PC-3 cells [13]): significantly reduced the level of AA | HMGCoA reductase level (western blot) [14]: significantly reduced the level of HMGCoA reductase | HMGCoA reductase level (western blot) ([14]; listed as avasimibe): reduced the expression of HMGCoA reductase | LDL receptor level (western blot) ([14]; listed as avasimibe): not affected | G2/M phase population compared to control group (PC-3 cells [15]): 2 times smaller | sub G0/G1 population compared to control group (PC-3 cells [15]): ~3 times larger | lipid droplet amount (LNCaP-HP cells [16]): remaining unchanged | accumulation of cholesteryl ester in lipid droplets (702 cm^-1 Raman peak) (LNCaP-HP cells [16]; 10 μM for 2 days): completely blocked the accumulation of CHOLESTERYL ESTER | cell morphology (LNCaP-HP cells [16]; 10 μM for 2 days): reversed the cell morphology to that of LNCaP-LP cells | cholesteryl ester accumulation (LNCaP-HP cells [16]): effectively suppressed cholesteryl ester accumulation | uptake of DiI-labeled LDL (PC-3 cells [17]): drastically inhibited LDL uptake

NC1(c2ccc(-c3nc4ccn5c(=O)[nH]nc5c4cc3-c3ccccc3)cc2)CCC1 [MK2206]
autofluorescent granules indicative of autophagy (PC-3 cells [8]): induced massive accumulation of autofluorescent granules | lipid droplet amount (PC-3 cells [8]): radically removed lipid droplets | autofluorescent granules indicative of autophagy (LNCaP-HP cells [16]): induced massive accumulation of autofluorescent granules | lipid droplet amount (LNCaP-HP cells [16]): radically removed lipid droplets

CCCCC/C=C\C/C=C\C/C=C\C/C=C\CCCC(=O)O [AA, arachidonic acid]
growth of PC-3 cells (PC-3 cells [10]; added LDL or AA (FIG. 46)): promoted the growth of PC-3 cells in a dose-dependent manner

CCCCCCCCCC[Si](C)(C)CCC(=O)NC(Cc1ccc(C)cc1)c1ccccc1 (centres unmarked) [Sandoz 58-035]
lipid droplet amount (PC-3 cells [8]): remaining unchanged | cholesteryl ester accumulation (PC-3 cells [8]): effectively suppressed cholesteryl ester accumulation | lipid droplet amount (LNCaP-HP cells [16]): remaining unchanged | cholesteryl ester accumulation (LNCaP-HP cells [16]): effectively suppressed cholesteryl ester accumulation

— patent US9164084B2, “Methods for determining aggressiveness of a cancer and treatment thereof” (Purdue Research Foundation, priority 2012, dated 2015)
